Source: ChEMBL document CHEMBL1154404 (Antimicrob Agents Chemother, 2007)

Experiments:
Homo sapiens [1] = species: Homo sapiens; assay: Drug elimination in healthy human assessed as cytochrome-dependent hepatic metabolism-mediated biliary elimination; assay type: ADME, organism-based; conditions: in vivo
[2] = Plasma concentration in fatty-liver cirrhosis patient plasma treated at 2 mg, po twice a day for 30 days measured after 15 hrs of last dose; assay type: ADME, organism-based; conditions: human
Homo sapiens [3] = assay: Volume of distribution in fatty-liver cirrhosis patient treated at 2 mg, po twice a day for 30 days measured after 2 days of last dose; assay type: ADME, organism-based; conditions: in vivo, 48 h
Homo sapiens [4] = species: Homo sapiens; assay: Drug elimination in healthy human assessed as cytochrome-dependent hepatic metabolism-mediated kidney elimination; assay type: ADME, organism-based; conditions: in vivo
Plasma = assay: Drug level in patient plasma; assay type: ADME, cell-free; conditions: human
[5] = Plasma concentration in fatty-liver cirrhosis patient plasma treated at 2 mg, po twice a day for 30 days measured after 2 days of last dose; assay type: ADME, organism-based; conditions: human
Homo sapiens [6] = assay: Volume of distribution in healthy human at 2 mg, po twice a day for 30 days measured after 2 days of last dose; assay type: ADME, organism-based; conditions: in vivo, 48 h
[7] = Plasma concentration in fatty-liver cirrhosis patient treated at 2 mg, po twice a day for 30 days measured after 11 days of last dose; assay type: ADME, organism-based; conditions: human
[8] = Half life in healthy human at 2 mg, po twice a day for 30 days measured after 2 days of last dose; assay type: ADME, organism-based; conditions: in vivo
[9] = Half life in fatty-liver cirrhosis patient treated at 2 mg, po twice a day for 30 days measured after 2 days of last dose; assay type: ADME, organism-based; conditions: human, in vivo

SMILES: C[C@@H](c1ncncc1F)[C@](O)(Cn1cncn1)c1ccc(F)cc1F [VORICONAZOLE]
- Activity (Homo sapiens [1]): 20%
- concentration at 15 h [2]: 13900 ng/mL
- Vd (Homo sapiens [3]): 0.13 L/kg
- Activity (Homo sapiens [4]): 80%
- Drug uptake (Plasma): > 2.05 µg/mL
- concentration at 48 h [5]: 10000 ng/mL
- Vd (Homo sapiens [6]): 2.04 L/kg
- concentration at 264 h [7]: 660 ng/mL
- half-life [8]: 282 min
- half-life [9]: 2.21 days
